# Literature values in article PMC9054008 (Science Advances, 2022).
# Target: I-Ab (Mus musculus, UniProt P14434+P14483)
# Conditions: cited from earlier work
# Chain of I-Ab (P14434 whole entry, looked up): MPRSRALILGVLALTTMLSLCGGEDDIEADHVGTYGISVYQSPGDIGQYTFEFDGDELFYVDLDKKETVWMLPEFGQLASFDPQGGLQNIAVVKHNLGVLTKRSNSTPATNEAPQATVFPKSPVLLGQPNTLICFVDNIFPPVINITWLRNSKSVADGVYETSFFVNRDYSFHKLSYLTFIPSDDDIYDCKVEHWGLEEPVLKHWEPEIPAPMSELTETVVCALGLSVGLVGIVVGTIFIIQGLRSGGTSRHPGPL
# Chain of I-Ab (P14483 whole entry, looked up): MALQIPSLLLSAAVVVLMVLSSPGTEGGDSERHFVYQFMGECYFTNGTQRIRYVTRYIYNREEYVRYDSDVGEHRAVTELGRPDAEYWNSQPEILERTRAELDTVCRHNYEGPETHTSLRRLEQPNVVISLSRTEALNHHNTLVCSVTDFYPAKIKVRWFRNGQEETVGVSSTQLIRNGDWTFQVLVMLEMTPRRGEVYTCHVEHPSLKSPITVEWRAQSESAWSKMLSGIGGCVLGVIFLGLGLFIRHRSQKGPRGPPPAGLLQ
row,Sequence,IC50 [µM]
1,IEDAKRMIAISAKVA,6.99
2,NSLILLECFVRSSPA,6.03
3,SGDAMARNISSRTLE,5.34
4,MDLADLFNAQPGLTS,5.78
5,RHIVGKPCPKPHRLN,8.7
6,KVFNTRRNTLLFLDL,4.62
7,ILKGVINIWGSGLLQ,7.27
8,MGQLISFFGEIPSII,9.64
9,TKKSIKEIASSISRL,3.77
10,EEALNVALAVVTLLA,2.73
